Data taken from patent US20210155670A1, “SYSTEMS AND METHODS FOR THE PREPARATION OF PEPTIDE-MHC-I COMPLEXES WITH NATIVE GLYCAN MODIFICATIONS” (The Regents of the University of California, priority 2019, published 2021).
“Also recorded” adds a separate entry of the source. Where two headings read alike, the source gives them in different places. Ends that are not written are not given here.

Key:
[1] = target: T1, HLA-A*68:02/TAPBPR complex (Homo sapiens, UniProt P04439+P61769, A269V/D140Y/D185E/E176V/E277Q/E87N/F33Y/G231S/I121R/I166T/I218V/L180W/N151K/P208A/P217A/Q86R/R138H/R169H/R297K/S129P/V36M); assay: Native gel shift assay of peptide binding to HLA-A*68:02/TAPBPR complex; settings: Example 2, 10-molar excess of peptide
T1 construct: human beta-2 microglobulin signal peptide (N); TEV protease site (C, cleaved yes); FOS leucine zipper (C, cleaved yes); made in house; host or cells: CHO cells
Description: CHO-derived HLA-A*02:01/TAPBPR complexes can be loaded with high-affinity TAX9 and MART-1 peptides (FIG. 11D). […] The two alleles have considerable sequence homology in the peptide-binding groove formed by the α1/α2 domains, resulting in a shared preference for a Val, Leu, Ala or Ile at the peptide anchor position 9, but marked variation at anchor position 2 where HLA-A*02:01 has a preference for Leu while HLA-A*68:02 prefers Thr (FIG. 11A). […] Structure-based modeling (Nerli and Sgourakis, bioRxiv, 2020.03.23.004176 (2020)) confirmed A-pocket hydrogen bonding interactions between peptide anchor position L2 with the K66 sidechain, Y7 with Y99 from HLA-A*02:01, and anchor position T2 with N66 and N63 from HLA-A*68:02 (FIG. 11B). According to the electrophoretic mobility shift assay, all predicted high-affinity peptides bound to HLA-A*02:01 and HLA-A*68:02 resulting in discrete pMHC-I protein bands. (FIG. 11C).
Gels were imaged using an Innotech FluoChem2 system (Genetic Technologies Grover, Mo.).

[2] = target: T2, HLA-A*02:01/TAPBPR complex (Homo sapiens, UniProt P04439+P61769, D140Y/D185E/D98H/E176V/E277Q/G131W/G231S/I119V/I121R/I166T/I218V/N151K/N90K/P208A/P217A/Q86G/Q94H/R138H/R169H); assay: Native gel shift assay of peptide binding to HLA-A*02:01/TAPBPR complex
T2 construct: human beta-2 microglobulin signal peptide (N); TEV protease site (C, cleaved yes); FOS leucine zipper (C, cleaved yes); made in house; host or cells: CHO cells (CHO-K1s / CHO-K1s C1s-/-), co-transfected, secreted

[3] = target: T3, HLA-A*24:02/TAPBPR complex (Homo sapiens, UniProt P04439+P61769, D101N/D140Y/E190D/F33S/G103R/G107R/I119L/I121M/L105A/N151K/N90K/Q86E/Q94H/R106L/R138H/R89G/T104I/V100E/W191G/Y123F); assay: Native gel electrophoresis of HLA-A*24:02/TAPBPR complex with peptides; format: binding; settings: FIG. 14c
T3 construct: human beta-2 microglobulin signal peptide (N); TEV protease site (C, cleaved yes); FOS leucine zipper (C, cleaved yes); made in house; host or cells: CHO cells

[4] = Example 2, 10-fold molar excess of peptide, native gel

GLLGIGILTV [GM1]
pMHC-I band formation in electrophoretic mobility shift assay [1]: significant binding

LLFGVPVYV [TAX9]
native gel band shift of MHC-I (pMHC formation) [2]: resulted in a band shift
pMHC-I band formation in electrophoretic mobility shift assay [2, 4]: formation of discrete bands corresponding to properly conformed pMHC species; also recorded: can be loaded; also recorded: pMHC-I formation

RGPGRAFVFI [Peptide P18_I10]
native gel band shift of MHC-I (pMHC formation) [2]: did not
pMHC-I band formation in electrophoretic mobility shift assay [2, 4]: non-binding

RYPLTFGWCF [Nef138-10]
complex dissociation in the presence of peptide, native gel [3]: complex dissociation

TLACFVLAAV
pMHC-I band formation in electrophoretic mobility shift assay [2]: little or no binding

VYGFVRACL [PHOX2B]
complex dissociation in the presence of peptide, native gel [3]: complex dissociation

WLMWLIINL
pMHC-I band formation in electrophoretic mobility shift assay [2, 4]: little or no binding

YPNVNIHNF [NIH p29, non-specific (NS) negative control peptide]
native gel band shift of MHC-I (pMHC formation) ([2]; Example 1, SEC purified unzippered complex, 5:1 molar ratio, 1 h room temperature): did not
pMHC-I band formation in electrophoretic mobility shift assay [2, 4]: non-binding
